Data as given in patent publication US20150289513A1, “USE OF A COMPOUND COMPRISING A POLYFLUOROBENZYL MOIETY AGAINST INSECTICIDE-RESISTANT PESTS” (priority 2012, published 2015).

What was measured:
[1] = system: Anopheles gambiae (strain: Tiassalé); assay: Glazed tile contact test, knock-down; assay type: in vivo
Method: (§1) To produce a suitable preparation Transfluthrin was dissolved in acetone. The active compound solution was pipetted onto a glazed tile and, after drying, adult mosquitoes of the species: • Anopheles gambiae (target-site-resistant and metabolic-resistant strain: RSPH), • Anopheles gambiae (target-site-resitant and metabolic-resistant strain: Tiassalé), • Anopheles gambiae (tar et-site-resitant and metabolic-resistant strain: Akron), • Anopheles gambiae (target-site-resistant strain: VK7), and • Anopheles funestus (metabolic-resistant strain FUMOZ-R) were placed onto the treated tile (each strain was tested on separate tiles). The exposition time was 30 minutes.
(§2) 0.25 hours, 0.5 hours, 1 hour, 2 hour, 3 hour, 4 hour and 24 hours after contact to the treated surface, the knock-down proportion of the test animals in % was determined. Here, 100% (effect) means that all mosquitoes have been killed; 0% (effect) means that none of the mosquitoes have been killed.

[2] = system: Anopheles gambiae (target-site-resistant strain: VK7); assay: Glazed tile contact test, knock-down; assay type: in vivo
Method: as §1, §2

[3] = 0.064 g/ha, 0.25 h after contact
[4] = 0.064 g/ha, 0.5 h after contact
[5] = 0.32 g/ha, 0.25 h after contact

With `CC1(C)[C@H](C=C(Cl)Cl)[C@H]1C(=O)OCc1c(F)c(F)cc(F)c1F` [Transfluthrin, (1R,3S)-3-(2,2-Dichlorovinyl)-2,2-dimethyl-1-cyclopropanecarboxylic acid (2,3,5,6-tetrafluorophenyl)methyl ester] the Effect % [1, 3] was 5%, the Effect % [1, 4] was 10% and the Effect % ([1]; 0.064 g/ha, 1 h after contact) was 15%. The Effect % ([1]; 0.064 g/ha, 2 h after contact) was 15%, the Effect % ([1]; 0.064 g/ha, 3 h after contact) was 15% and the Effect % ([1]; 0.064 g/ha, 4 h after contact) was 10%. It also gave an Effect % ([1]; 0.064 g/ha, 24 h after contact) of 20%, an Effect % [1, 5] of 5% and an Effect % ([1]; 0.32 g/ha, 0.5 h after contact) of 15%. For the same compound, the Effect % ([1]; 0.32 g/ha, 1 h after contact) was 5%, the Effect % ([1]; 0.32 g/ha, 2 h after contact) was 10% and the Effect % ([1]; 0.32 g/ha, 3 h after contact) was 10%. It also gave an Effect % ([1]; 0.32 g/ha, 4 h after contact) of 10%, an Effect % ([1]; 0.32 g/ha, 24 h after contact) of 15% and an Effect % ([1]; 1.6 g/ha, 0.25 h after contact) of 0%. It also gave an Effect % ([1]; 1.6 g/ha, 0.5 h after contact) of 15%, an Effect % ([1]; 1.6 g/ha, 1 h after contact) of 10% and an Effect % ([1]; 1.6 g/ha, 2 h after contact) of 5%. For the same compound, the Effect % ([1]; 1.6 g/ha, 3 h after contact) was 5%, the Effect % ([1]; 1.6 g/ha, 4 h after contact) was 0% and the Effect % ([1]; 1.6 g/ha, 24 h after contact) was 10%. For the same compound, the Effect % ([1]; 8 g/ha, 0.25 h after contact) was 90%, the Effect % ([1]; 8 g/ha, 0.5 h after contact) was 100% and the Effect % ([1]; 8 g/ha, 1 h after contact) was 100%. For the same compound, the Effect % ([1]; 8 g/ha, 2 h after contact) was 85%, the Effect % ([1]; 8 g/ha, 3 h after contact) was 80% and the Effect % ([1]; 8 g/ha, 4 h after contact) was 85%. The Effect % ([1]; 8 g/ha, 24 h after contact) was 60%, the Effect % ([1]; 40 g/ha, 0.25 h after contact) was 100% and the Effect % ([1]; 40 g/ha, 0.5 h after contact) was 100%. The Effect % ([1]; 40 g/ha, 1 h after contact) was 100%, the Effect % ([1]; 40 g/ha, 2 h after contact) was 95% and the Effect % ([1]; 40 g/ha, 3 h after contact) was 90%. The Effect % ([1]; 40 g/ha, 4 h after contact) was 85%, the Effect % ([1]; 40 g/ha, 24 h after contact) was 85% and the Effect % ([1]; 200 g/ha, 0.25 h after contact) was 100%. For the same compound, the Effect % ([1]; 200 g/ha, 0.5 h after contact) was 100%, the Effect % ([1]; 200 g/ha, 1 h after contact) was 100% and the Effect % ([1]; 200 g/ha, 2 h after contact) was 100%. The Effect % ([1]; 200 g/ha, 3 h after contact) was 100%, the Effect % ([1]; 200 g/ha, 4 h after contact) was 100% and the Effect % ([1]; 200 g/ha, 24 h after contact) was 85%. It also gave an Effect % [2, 3] of 5%, an Effect % [2, 4] of 5% and an Effect % ([2]; 0.064 g/ha, 1 h after contact) of 5%. For the same compound, the Effect % ([2]; 0.064 g/ha, 2 h after contact) was 15%, the Effect % ([2]; 0.064 g/ha, 3 h after contact) was 15% and the Effect % ([2]; 0.064 g/ha, 4 h after contact) was 15%. The Effect % ([2]; 0.064 g/ha, 24 h after contact) was 25%, the Effect % [2, 5] was 25% and the Effect % ([2]; 0.32 g/ha, 0.5 h after contact) was 35%. For the same compound, the Effect % ([2]; 0.32 g/ha, 1 h after contact) was 20%, the Effect % ([2]; 0.32 g/ha, 2 h after contact) was 20% and the Effect % ([2]; 0.32 g/ha, 3 h after contact) was 20%. It also gave an Effect % ([2]; 0.32 g/ha, 4 h after contact) of 25%, an Effect % ([2]; 0.32 g/ha, 24 h after contact) of 30% and an Effect % ([2]; 1.6 g/ha, 0.25 h after contact) of 80%.
